The record followed here is patent US8349852B2, “Quinazolinone derivatives useful as vanilloid antagonists” (Novartis AG, priority 2009, dated 2013).

The assay concerns the target human TRPV1 (Homo sapiens, UniProt Q8NER1). In words: inhibition of low pH-, capsaicin-, anandamide- and NADA-stimulation of human TRPV1. It counts as cell-based. The source says:
The compounds of formulae (I) and (Ia) and I(B) in crystal form B, and their pharmaceutically acceptable salts and, where possible, pharmaceutically acceptable acid addition salts, have beneficial pharmacological activity and, therefore, are useful as pharmaceuticals.

human TRPV1, sequence (Q8NER1 whole entry): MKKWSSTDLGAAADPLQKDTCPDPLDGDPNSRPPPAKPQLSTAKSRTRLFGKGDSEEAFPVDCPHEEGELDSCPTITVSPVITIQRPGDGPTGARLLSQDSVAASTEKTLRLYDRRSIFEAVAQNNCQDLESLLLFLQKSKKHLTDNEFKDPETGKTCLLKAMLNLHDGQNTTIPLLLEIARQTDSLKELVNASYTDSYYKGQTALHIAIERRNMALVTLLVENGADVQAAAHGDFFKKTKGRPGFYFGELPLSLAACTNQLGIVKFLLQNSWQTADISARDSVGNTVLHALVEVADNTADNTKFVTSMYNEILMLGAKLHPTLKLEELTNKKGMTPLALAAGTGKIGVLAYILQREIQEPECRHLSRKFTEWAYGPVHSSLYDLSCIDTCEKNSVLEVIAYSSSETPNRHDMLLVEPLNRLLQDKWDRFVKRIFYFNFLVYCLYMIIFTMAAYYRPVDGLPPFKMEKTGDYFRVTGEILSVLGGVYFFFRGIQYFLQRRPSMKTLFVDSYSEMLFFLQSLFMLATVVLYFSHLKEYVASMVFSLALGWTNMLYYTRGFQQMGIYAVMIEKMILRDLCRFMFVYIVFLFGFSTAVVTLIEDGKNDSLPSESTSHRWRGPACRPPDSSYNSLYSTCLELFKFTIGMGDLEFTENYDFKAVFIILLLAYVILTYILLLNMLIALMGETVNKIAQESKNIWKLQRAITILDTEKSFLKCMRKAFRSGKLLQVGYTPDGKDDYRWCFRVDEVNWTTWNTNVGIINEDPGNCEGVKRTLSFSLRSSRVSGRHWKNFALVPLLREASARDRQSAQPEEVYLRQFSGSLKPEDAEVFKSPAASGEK

With `CC(C)c1nc2cc(O)ccc2c(=O)n1-c1ccc(C#N)cc1` [Example 1, 4-(7-hydroxy-2-isopropyl-4-oxo-4H-quinazolin-3-yl)-benzonitrile crystal form B], the “nature of antagonist activity at human TRPV1” value is “non-competitive and reversible”. Half-maximal inhibition (IC50, inhibition of NADA-stimulation of human TRPV1, stimulus: NADA) (IC50) required 27 nM. Moreover, half-maximal inhibition (IC50, inhibition of anandamide-stimulation of human TRPV1, stimulus: anandamide) (IC50) required 10 nM. For the same compound, 12 nM corresponded to half-maximal inhibition (IC50, inhibition of capsaicin-stimulation of human TRPV1, stimulus: capsaicin) (IC50). Further, the midpoint of inhibition (IC50, inhibition of low pH-stimulation of human TRPV1, stimulus: low pH), the IC50, lay at 5 nM.
